Data on eleven compounds can be found in patent publication US20080125424A1, “Derivatives of urea and related diamines, methods for their manufacture, and uses therefor” (priority 2006, published 2008).

Structures are written as SMILES. Some results are limits rather than exact numbers.

In one assay the target is T1, human parathyroid cell Ca2+ receptor (hPCaR) (Homo sapiens, UniProt P41180).
T1 construct: expressed in transfected cells
T1 sequence (P41180 20-1078): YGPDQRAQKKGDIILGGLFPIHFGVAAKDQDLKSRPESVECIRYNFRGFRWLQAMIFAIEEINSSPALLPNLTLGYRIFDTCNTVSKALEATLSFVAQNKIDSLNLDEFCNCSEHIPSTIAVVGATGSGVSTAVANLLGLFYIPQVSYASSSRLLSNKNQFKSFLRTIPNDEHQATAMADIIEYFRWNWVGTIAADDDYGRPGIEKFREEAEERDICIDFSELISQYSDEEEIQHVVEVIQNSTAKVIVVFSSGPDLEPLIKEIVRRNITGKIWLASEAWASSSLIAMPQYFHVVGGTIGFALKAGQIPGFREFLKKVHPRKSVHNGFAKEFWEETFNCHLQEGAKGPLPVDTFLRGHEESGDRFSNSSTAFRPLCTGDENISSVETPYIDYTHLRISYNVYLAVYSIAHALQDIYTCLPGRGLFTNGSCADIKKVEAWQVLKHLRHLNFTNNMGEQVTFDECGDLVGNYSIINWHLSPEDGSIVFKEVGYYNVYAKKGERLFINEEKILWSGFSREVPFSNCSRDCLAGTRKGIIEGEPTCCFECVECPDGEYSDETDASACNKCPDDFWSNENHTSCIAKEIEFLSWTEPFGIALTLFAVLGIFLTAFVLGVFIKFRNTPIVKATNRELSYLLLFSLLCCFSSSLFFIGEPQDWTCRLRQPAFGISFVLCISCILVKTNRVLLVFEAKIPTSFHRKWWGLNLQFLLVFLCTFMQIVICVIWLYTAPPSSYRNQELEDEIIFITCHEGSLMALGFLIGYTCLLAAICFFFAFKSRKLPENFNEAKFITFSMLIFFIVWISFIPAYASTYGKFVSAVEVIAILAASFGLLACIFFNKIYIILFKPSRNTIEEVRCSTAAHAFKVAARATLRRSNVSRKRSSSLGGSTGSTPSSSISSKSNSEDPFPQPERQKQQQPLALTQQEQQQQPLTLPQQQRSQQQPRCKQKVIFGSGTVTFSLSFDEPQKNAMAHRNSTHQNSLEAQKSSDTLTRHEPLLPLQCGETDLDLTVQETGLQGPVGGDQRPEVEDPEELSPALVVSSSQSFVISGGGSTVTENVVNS
In words: [Ca2+]i fluorescence assay in HEK 293 4.0-7 cells expressing hPCaR. The settings on record: buffer with 1 mM CaCl2. Type of assay: cell-based. In short, it runs like this:
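HEK 293 clone 4.0-7 stably expressing human parathyroid Ca2+ receptor, seeded overnight, then loaded 90 min at room temperature with calcium dye in parathyroid cell buffer (pH 7.45) with 0.5% BSA and 1 mM CaCl2. Fluorescence after compound addition read at ex 485/em 530 nm.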
One may read the EC50 as the concentration giving half of the maximal effect. A high value points to weaker potency. For `CS(=O)(=O)NCCN(CCC(c1ccccc1)c1ccccc1)C(=O)Nc1nc2ccccc2s1` [Example 167, N-{2-[3-Benzothiazol-2-yl-1-(3,3-diphenyl-propyl)-ureido]-ethyl}-methanesulfonamide], the EC50 is 100 to 1000 nM.

In turn, `O=C(CCN(CCC(c1ccccc1)c1ccccc1)C(=O)Nc1nc2ccccc2s1)NC1CCCCC1` [Example 112, 3-(benzo[d]thiazol-2-yl)-1-(3-(cyclohexylamino)-3-oxopropyl)-1-(3,3-diphenylpropyl)urea] yielded an EC50 of 100 to 1000 nM.

In the case of `O=C1CC[C@@H](NCCN(CCC(c2ccccc2)c2ccccc2)C(=O)Nc2nc(-c3ccccc3)c(Cl)s2)CN1` [Example 147, (R)-3-(5-chloro-4-phenylthiazol-2-yl)-1-(3,3-diphenylpropyl)-1-(2-(6-oxopiperidin-3-ylamino)ethyl)urea], the 50% effective concentration (EC50) was less than 100 nM.

The compound `C[C@H]1CNCCN1C(=O)CCCN(CCC(c1ccccc1)c1ccccc1)C(=O)Nc1nc(-c2ccccc2)cs1` [Example 100, (S)-1-(3,3-diphenylpropyl)-1-(4-(2-methylpiperazin-1-yl)-4-oxobutyl)-3-(4-phenylthiazol-2-yl)urea] gave an EC50 of 100 to 1000 nM.

The target in the next assay is T2, Human Ca2+ receptor (Homo sapiens, UniProt P41180).
T2 construct: expressed in transfected cells
T2 sequence (P41180 20-1078): T1 sequence (P41180 20-1078)
Briefly: Luciferase reporter assay in CHO cells (ET8-5-5) transfected with human Ca2+ receptor. Type of assay: cell-based. As to conditions: CHO ET8-5-5 cells, 5 h incubation with test compound. The method, then: The activities of the compounds of the present invention on calcium receptors were measured in accordance with the method described hereinbelow.
Human Ca^2+ receptor cDNA was subcloned into the mammalian expression vector PECE as described in Ellis, L et al. (1986) Cell vol. 45, 721-732. The luciferase reporter was subcloned into the mammalian expression vector pGL3basic (Promega). Resistance to neomycin (pSV2-neo) and resistance to puromycin (pSG5-puro) were used as selection markers. All these plasmids were simultaneously transfected into CHO cells by calcium phosphate precipitation. Transfected cells were grown in F12 medium containing 7.5% foetal bovine serum, 100 U/ml penicillin and 100 μg/ml streptomycin (as 1% Pen-Strep, BioWithaker), neomycin (750 μg/ml) and puromycin (5 μg/ml). Neomycin and puromycin resistant colonies were subcloned and assayed for activation against a range of calcium concentration. Clone 8-5-5 was used to assess the effects of compounds on [Ca^2+]i. This stably transfected cell line was termed ET8-5-5.
For measurements of [Ca^2+]i, the cells were recovered from tissue culture flasks by brief treatment with Trypsin-EDTA (Invitrogen; containing 0.53 mM EDTA.4Na in HBSS) and then seeded in culture-treated 96-well plates (Greiner) at 50 k cells per well in the growth media (same as above, except neomycin 400 μg/ml). Cells were grown in 37° C. TC incubator for 24 h. The culture medium was then removed and replaced with F12 medium, 1% Pen-Strep for an overnight foetal bovine serum starvation in 37° C. TC incubator. Then the starvation medium was removed and replaced with a test buffer (20 mM HEPES pH 7.4, 125 mM NaCl, 5 mM KCl, 1 mM MgCl2, 5.5 mM Glucose, 2 g/l lysosyme and 0.3 mM CaCl2) supplemented with a range of test compound concentrations crossed against a super-added range of CaCl2 concentrations. The cells were incubated with the test compounds for 5 h in 37° C. TC incubator. Then the test buffer was discarded, and cells were added with the substrate for Luciferase from SteadyLite Kit (Perkin-Elmer). The luminescence was recorded.
A general note: In a reporter assay the amount or activity of a reporter protein is the signal.
On to `O=C(O)CCCN(CCC(c1ccccc1)c1ccccc1)C(=O)Nc1cccc(C(=O)O)c1` [Example 65, 3-[3-(3-carboxy-propyl)-3-(3,3-diphenyl-propyl)-ureido]-benzoic acid], for which the EC50 lay in the range of 1000 to 10000 nM.

Consider `COC(=O)c1cccc(NC(=O)N(CCC(c2ccccc2)c2ccccc2)CC(=O)OC(C)(C)C)c1` [Example 63, 3-[3-tert-butoxycarbonylmethyl-3-(3,3-diphenyl-propyl)-ureido]-benzoic acid methyl ester], for which the EC50 was in the range of 100 to 1000 nM.

For the compound `O=C(O)CN(CCC(c1ccccc1)c1ccccc1)C(=O)Nc1cccc(C(=O)O)c1` [Example 66, 3-[3-carboxymethyl-3-(3,3-diphenyl-propyl)-ureido]-benzoic acid], the EC50 was 1000 to 10000 nM.

Consider `COc1ccc(S(=O)(=O)NCCN(CCC(c2ccccc2)c2ccccc2)C(=O)Nc2nc3ccccc3s2)cc1` [Example 172, N-{2-[3-Benzothiazol-2-yl-1-(3,3-diphenylpropyl)-ureido]-ethyl}-4-methoxybenzenesulfonamide], for which the 50% effective concentration (EC50) lay in the range of 100 to 1000 nM.

For the compound `O=C(Nc1nc2ccccc2s1)N(CCNS(=O)(=O)c1ccc(C(F)(F)F)cc1)CCC(c1ccccc1)c1ccccc1` [Example 173, N-{2-[3-Benzothiazol-2-yl-1-(3,3-diphenylpropyl)-ureido]-ethyl}-4-trifluoromethyl-benzenesulfonamide], the EC50 lay in the range of 100 to 1000 nM.

With `CCOC(=O)CCCN(CCC(c1ccccc1)c1ccccc1)C(=O)Nc1cccc(C(=O)OC)c1` [Example 64, 3-[3-(3,3-diphenyl-propyl)-3-(3-ethoxycarbonyl-propyl)-ureido]-benzoic acid methyl ester], the EC50 is less than 100 nM.

In the case of `COC(=O)c1ccccc1S(=O)(=O)NCCN(CCC(c1ccccc1)c1ccccc1)C(=O)Nc1nc2ccccc2s1` [Example 171, 2-{2-[3-Benzothiazol-2-yl-1-(3,3-diphenyl-propyl)-ureido]-ethylsulfamoyl}-benzoic acid methyl ester], the concentration giving a half-maximal response (EC50) was in the range of 100 to 1000 nM.
